Patent US20230111853A1, “COMPOUNDS MODULATING PROTEIN RECRUITMENT AND/OR DEGRADATION” (Orionis Biosciences, Inc., priority 2019, published 2023)

What was measured:
Format in all cases: cell-based
[1] = molecular target: T1, SALL4 recruitment to CRBN (Homo sapiens, UniProt Q96SW2); test: Recruitment Assay (MAPPIT-like): SALL4 recruitment to CRBN; conditions: HEK293T cells; pSEL-SALL4+pMG1-CRBN; luciferase 24 hours after treatment; read-out: EC50_SALL4
T1 construct: Full size proteins were fused for each of the target proteins tested, except in the case of IKZF1 where isoform 7 was used; expressed in transfected cells; host or cells: HEK293T
T1 sequence (Q96SW2 whole entry, the tested form may be a part, canonical isoform): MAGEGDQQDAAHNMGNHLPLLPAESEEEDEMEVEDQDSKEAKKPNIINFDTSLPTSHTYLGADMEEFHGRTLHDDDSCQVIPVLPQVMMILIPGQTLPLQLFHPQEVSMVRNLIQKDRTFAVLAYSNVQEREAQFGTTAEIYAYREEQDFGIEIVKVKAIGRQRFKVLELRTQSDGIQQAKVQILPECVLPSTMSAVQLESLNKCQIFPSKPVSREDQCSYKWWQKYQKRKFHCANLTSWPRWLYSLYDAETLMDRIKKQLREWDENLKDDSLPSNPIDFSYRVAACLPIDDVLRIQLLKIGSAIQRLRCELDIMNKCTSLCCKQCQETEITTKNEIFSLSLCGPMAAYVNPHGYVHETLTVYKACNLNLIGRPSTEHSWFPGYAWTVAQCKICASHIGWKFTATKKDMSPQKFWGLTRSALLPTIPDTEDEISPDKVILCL
T1 sequence (Q9UJQ4 whole entry partner, the tested form may be a part, canonical isoform): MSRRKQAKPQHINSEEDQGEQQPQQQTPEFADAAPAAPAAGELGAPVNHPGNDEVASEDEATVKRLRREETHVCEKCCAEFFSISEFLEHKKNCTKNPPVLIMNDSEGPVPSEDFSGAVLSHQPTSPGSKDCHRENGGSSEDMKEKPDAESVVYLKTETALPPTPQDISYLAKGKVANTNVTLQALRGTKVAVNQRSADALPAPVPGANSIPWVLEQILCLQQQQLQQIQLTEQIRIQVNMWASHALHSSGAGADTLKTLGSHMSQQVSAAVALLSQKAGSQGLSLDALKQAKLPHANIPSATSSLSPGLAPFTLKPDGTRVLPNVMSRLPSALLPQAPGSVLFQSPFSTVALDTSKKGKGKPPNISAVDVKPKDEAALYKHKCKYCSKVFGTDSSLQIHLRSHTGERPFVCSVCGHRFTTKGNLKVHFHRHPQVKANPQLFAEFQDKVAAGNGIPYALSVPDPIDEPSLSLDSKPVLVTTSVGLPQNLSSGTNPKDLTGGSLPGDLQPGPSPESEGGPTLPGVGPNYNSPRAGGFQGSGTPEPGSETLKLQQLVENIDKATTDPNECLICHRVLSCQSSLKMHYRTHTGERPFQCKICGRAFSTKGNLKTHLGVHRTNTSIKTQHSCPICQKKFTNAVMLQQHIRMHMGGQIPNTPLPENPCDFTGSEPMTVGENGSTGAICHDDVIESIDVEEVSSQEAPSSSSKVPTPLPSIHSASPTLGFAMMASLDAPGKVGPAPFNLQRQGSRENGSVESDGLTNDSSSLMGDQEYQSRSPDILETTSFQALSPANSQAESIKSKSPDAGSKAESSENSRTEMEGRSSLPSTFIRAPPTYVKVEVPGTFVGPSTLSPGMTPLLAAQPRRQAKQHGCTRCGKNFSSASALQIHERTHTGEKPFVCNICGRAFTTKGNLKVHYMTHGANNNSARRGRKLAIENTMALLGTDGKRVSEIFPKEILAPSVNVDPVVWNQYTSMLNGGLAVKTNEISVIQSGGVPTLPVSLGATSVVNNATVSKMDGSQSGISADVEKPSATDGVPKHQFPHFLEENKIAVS
T1 sequence (Q16531 whole entry partner, the tested form may be a part, canonical isoform): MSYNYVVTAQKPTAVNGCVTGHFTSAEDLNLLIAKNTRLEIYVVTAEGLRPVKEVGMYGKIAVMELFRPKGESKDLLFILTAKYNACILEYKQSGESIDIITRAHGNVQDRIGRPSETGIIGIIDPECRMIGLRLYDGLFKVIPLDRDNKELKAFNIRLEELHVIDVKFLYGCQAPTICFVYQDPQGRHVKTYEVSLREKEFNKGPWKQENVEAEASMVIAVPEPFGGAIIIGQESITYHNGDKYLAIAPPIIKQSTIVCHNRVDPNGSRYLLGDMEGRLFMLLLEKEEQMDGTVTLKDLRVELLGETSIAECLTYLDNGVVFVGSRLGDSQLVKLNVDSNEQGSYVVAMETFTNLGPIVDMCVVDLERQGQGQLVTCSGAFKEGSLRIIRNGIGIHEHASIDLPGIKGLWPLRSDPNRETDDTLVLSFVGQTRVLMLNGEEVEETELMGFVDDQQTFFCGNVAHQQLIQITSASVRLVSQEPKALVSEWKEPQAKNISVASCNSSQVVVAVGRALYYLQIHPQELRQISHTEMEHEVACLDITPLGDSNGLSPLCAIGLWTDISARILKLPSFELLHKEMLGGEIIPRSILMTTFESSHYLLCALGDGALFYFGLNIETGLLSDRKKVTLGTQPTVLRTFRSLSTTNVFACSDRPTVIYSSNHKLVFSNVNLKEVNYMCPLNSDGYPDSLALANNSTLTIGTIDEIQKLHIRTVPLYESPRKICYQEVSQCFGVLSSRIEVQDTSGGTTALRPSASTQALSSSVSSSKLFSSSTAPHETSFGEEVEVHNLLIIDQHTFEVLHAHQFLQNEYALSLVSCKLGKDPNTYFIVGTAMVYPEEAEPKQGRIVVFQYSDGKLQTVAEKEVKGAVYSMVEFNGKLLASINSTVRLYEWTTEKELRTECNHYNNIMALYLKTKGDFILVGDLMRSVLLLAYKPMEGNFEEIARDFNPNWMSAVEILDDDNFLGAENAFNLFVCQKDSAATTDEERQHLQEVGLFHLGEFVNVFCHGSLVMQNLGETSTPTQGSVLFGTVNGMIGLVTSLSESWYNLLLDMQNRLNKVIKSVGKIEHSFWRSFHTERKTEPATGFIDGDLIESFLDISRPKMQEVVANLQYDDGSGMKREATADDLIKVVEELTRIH
Protocol: (§1) In this experimental set-up, cells were transfected with a construct encoding a CRBN-fusion protein and another one encoding a substrate-fusion protein. Test compound activity was assessed with increasing concentrations of test compounds (dose-response studies) to monitor the ability to promote CRBN-ligand-induced protein interaction.
(§2) Full size proteins were fused for each of the target proteins tested, except in the case of IKZF1 where isoform 7 was used. For the study, the following were used: IKZF1 recruitment: pSEL-CRBN+pMG1-IKZF1(isoform 7); ASS1 recruitment: pSEL-CRBN+pMG1-ASS1. SALL4 recruitment: pSEL-SALL4+pMG1-CRBN. […] Luciferase activity was measured 24 hours after test compound treatment using the Luciferase Assay System kit (PROMEGA, Madison, Wis.) with an Ensight plate reader (PERKIN ELMER LIFE SCIENCES, Waltham, Mass.). Data points depicted fold induction of the average luciferase activity of triplicate samples from EPO+test compound treated cells versus EPO only treated cells. Error bars represent standard deviations. Curves were fit using 4-parameter nonlinear regression in […] PRISM software.

[2] = system: IKZF1, ASS1 and SALL4 recruitment to CRBN; test: Recruitment assessment: recruitment of any tested substrate from among IKZF1, ASS1 and SALL4; conditions: any tested substrate at any tested compound concentration
[3] = molecular target: T2, IKZF1 (isoform 7) recruitment to CRBN (Homo sapiens, UniProt Q96SW2); test: Recruitment Assay (MAPPIT-like): IKZF1 recruitment to CRBN; conditions: HEK293T cells; pSEL-CRBN+pMG1-IKZF1(isoform 7); luciferase 24 hours after treatment; read-out: EC50_IKZF1
T2 construct: Full size proteins were fused for each of the target proteins tested, except in the case of IKZF1 where isoform 7 was used; expressed in transfected cells; host or cells: HEK293T
T2 sequence (Q96SW2 whole entry, the tested form may be a part, canonical isoform): as the sequence (Q96SW2 whole entry, the tested form may be a part, canonical isoform) above
T2 sequence (Q13422 1-477 isoform Q13422-7 partner): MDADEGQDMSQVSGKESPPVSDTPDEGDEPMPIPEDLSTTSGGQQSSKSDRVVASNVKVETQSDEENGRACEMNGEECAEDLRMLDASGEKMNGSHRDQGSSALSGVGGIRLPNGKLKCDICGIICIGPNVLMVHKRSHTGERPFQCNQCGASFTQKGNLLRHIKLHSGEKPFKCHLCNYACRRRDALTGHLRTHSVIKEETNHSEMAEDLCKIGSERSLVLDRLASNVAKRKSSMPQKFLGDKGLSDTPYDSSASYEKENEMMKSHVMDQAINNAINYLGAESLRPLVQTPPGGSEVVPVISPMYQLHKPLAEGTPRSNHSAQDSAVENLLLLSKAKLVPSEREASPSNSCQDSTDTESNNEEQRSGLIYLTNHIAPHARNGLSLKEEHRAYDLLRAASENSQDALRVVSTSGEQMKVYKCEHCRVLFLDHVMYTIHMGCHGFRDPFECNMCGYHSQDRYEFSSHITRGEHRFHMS
T2 sequence (Q16531 whole entry partner, the tested form may be a part, canonical isoform): as the sequence (Q16531 whole entry partner, the tested form may be a part, canonical isoform) above
Protocol: as §1, §2

EC50 [1] | EC50 [3] | SMILES | Recruitment Assessment [2]
904 nM |  | Cc1ccc2c(=O)n(C3CCC(=O)NC3=O)nnc2c1 (centres unmarked) [C17800, 3-(7-methyl-4-oxo-1,2,3-benzotriaan-3-yl)piperidirie-2,6-dione] | TRUE
631 nM | 494 nM | CS(=O)(=O)Nc1cccc2c1CN(C1CCC(=O)NC1=O)C2=O (centres unmarked) [C22548, N-[2-(2,6-dioxo-3-piperidyl)-1-oxo-isoindolin-4-yl] methanesulfonamide] | TRUE
873 nM |  | COCC(=O)Nc1cccc2c1CN(C1CCC(=O)NC1=O)C2=O (centres unmarked) [C22564, N-[2-(2,6-dioxo-3-piperidyl)-1-oxo-isoindolin-4-yl]-2-methoxy-acetamide] | TRUE
1140 nM |  | CN(C)CC(=O)Nc1cccc2c1CN(C1CCC(=O)NC1=O)C2=O (centres unmarked) [C22586, 2-(dimethylamino)-N-[2-(2,6-dioxo-3-piperidyl)-1-oxo-isoindolin-4-yl] acetamide] | TRUE
121 nM |  | CCOC(=O)Nc1cccc2c1CN(C1CCC(=O)NC1=O)C2=O (centres unmarked) [C22622, ethyl N-[2-(2,6-dioxo-3-piperidyl)-1-oxo-isoindolin-4-yl]carbamate] | TRUE
88.2 nM |  | O=C1CCC(N2Cc3cccc(F)c3C2=O)C(=O)N1 (centres unmarked) [C23066, 3-(7-fluoro-1-oxo-isoindolin-2-yl)piperidine-2,6-dione] | TRUE
270 nM |  | Cc1ccc2c(c1)C(=O)N(C1CCC(=O)NC1=O)C2 (centres unmarked) [C28620, 3-(6-methyl-1-oxo-isoindolin-2-yl)piperidine-2,6-dione] | TRUE
186 nM |  | CC(=O)Nc1ccc2c(c1)CN(C1CCC(=O)NC1=O)C2=O (centres unmarked) [C29361, N-[2-(2,6-dioxo-3-piperidyl)-1-oxo-isoindolin-5-yl]acetamide] | TRUE
 | 1410 nM | O=C1CCCC(N2Cc3c(cccc3[N+](=O)[O-])C2=O)C(=O)N1 (centres unmarked) [C29737, 3-(4-nitro-1-oxo-isoindolin-2-yl)azepane-2,7-dione] | TRUE
1700 nM | 2730 nM | O=C1CCC(N2Cc3c(NC(=O)Nc4cccc5c4CN(C4CCC(=O)NC4=O)C5=O)cccc3C2=O)C(=O)N1 (centres unmarked) [C30231, 1,3-bis[2-(2,6-dioxo-3-piperidyl)-1-oxo-isoindolin-4-yl]urea] | TRUE
3030 nM |  | CC(=O)NC1c2ccccc2C(=O)N1C1CCC(=O)NC1=O (centres unmarked) [C33779, N-[2-(2,6-dioxo-3-piperidyl)-3-oxo-isoindolin-1-yl]acetamide] | TRUE
2630 nM |  | CC(=O)NCCNc1ccc2c(c1)CN(C1CCC(=O)NC1=O)C2=O (centres unmarked) [C35745, N-[2-[[2-(2,6-dioxo-3-piperidyl)-1-oxo-isoindolin-5-yl]amino]ethyl]acetamide] | TRUE
278 nM |  | CCOC(=O)NCCNc1ccc2c(c1)CN(C1CCC(=O)NC1=O)C2=O (centres unmarked) [C35754, ethyl N-[2-[[2-(2,6-dioxo-3-piperidyl)-1-oxo-isoindolin-5-yl]amino]ethyl]carbamate] | TRUE
1080 nM | 1330 nM | O=C1CCC(N2Cc3cc(NCC(=O)Nc4ccccc4)ccc3C2=O)C(=O)N1 (centres unmarked) [C35797, 2-[[2-(2,6-dioxo-3-piperidyl)-1-oxo-isoindolin-5-yl]amino]-N-phenyl-acetamide] | TRUE
641 nM |  | NC(=O)c1cccc(NC(=O)CNc2ccc3c(c2)CN(C2CCC(=O)NC2=O)C3=O)c1 (centres unmarked) [C35811, 3-[[2-[[2-(2,6-dioxo-3-piperidyl)-1-oxo-isoindolin-5-yl]amino]acetyl]amino]benzamide] | TRUE
188 nM | 1150 nM | O=C(CNc1ccc2c(c1)CN(C1CCC(=O)NC1=O)C2=O)NCc1ccccc1 (centres unmarked) [C35856] | TRUE
875 nM | 17100 nM | N#CC1c2ccccc2C(=O)N1C1CCC(=O)NC1=O (centres unmarked) [C39453, 2-(2,6-dioxo-3-piperidyl)-3-oxo-isoindoline-1-carbonitrile] | TRUE
 | 784 nM | Nc1cccc2c1CN(C1CC(=O)NC1=O)C2=O (centres unmarked) [C47930, 3-(4-amino-1-oxo-isoindolin-2-yl)pyrrolidine-2,5-dione] | TRUE

EC50 [1] | EC50 [3] | SMILES | Recruitment Assessment [2]
441 nM |  | O=C1CCC(N2Cc3ncccc3C2=O)C(=O)N1 (centres unmarked) [C47959, 3-(5-oxo-7H-pyrrolo[3,4-b]pyridin-6-yl)piperidine-2,6-dione] | TRUE
518 nM |  | O=C(O)CNc1ccc2c(c1)CN(C1CCC(=O)NC1=O)C2=O (centres unmarked) [C47995, 2-[[2-(2,6-dioxo-3-piperidyl)-1-oxo-isoindolin-5-yl]amino]acetic acid] | TRUE
2170 nM |  | O=C(O)CNc1cccc2c1C(=O)N(C1CCC(=O)NC1=O)C2 (centres unmarked) [C47998, 2-[[2-(2,6-dioxo-3-piperidyl)-3-oxo-isoindolin-4-yl]amino]acetic acid] | TRUE
581 nM |  | N#Cc1cccc2c1CN(C1CCC(=O)NC1=O)C2=O (centres unmarked) [C48003, 2-(2,6-dioxo-3-piperidyl)-1-oxo-isoindoline-4-carbonitrile] | TRUE
595 nM |  | N#Cc1ccc2c(c1)CN(C1CCC(=O)NC1=O)C2=O (centres unmarked) [C48005, 2-(2,6-dioxo-3-piperidyl)-1-oxo-isoindoline-5-carbonitrile] | TRUE
430 nM | 1620 nM | N#Cc1ccc2c(c1)C(=O)N(C1CCC(=O)NC1=O)C2 (centres unmarked) [C48007, 2-(2,6-dioxo-3-piperidyl)-3-oxo-isoindoline-5-carbonitrile] | TRUE
122 nM |  | O=C1CCC(N2Cc3cc(-c4ccccc4)ccc3C2=O)C(=O)N1 (centres unmarked) [C48016, 3-(1-oxo-5-phenyl-isoindolin-2-yl)piperidine-2,6-dione] | TRUE
395 nM |  | O=C1CCC(N2Cc3ccc(-c4ccccc4)cc3C2=O)C(=O)N1 (centres unmarked) [C48018, 3-(1-oxo-6-phenyl-isoindolin-2-yl)piperidine-2,6-dione] | TRUE
1490 nM |  | O=C1CCC(N2C(=O)C3=C(C2=O)c2ccccc2CC3)C(=O)N1 (centres unmarked) [C64340, 2-(2,6-dioxo-3-piperidyl)-4,5-dihydrobenzo[e]isoindole-1,3-dione] | TRUE
319 nM |  | O=C1CCC(N2Cc3cc4c(cc3C2=O)OCO4)C(=O)N1 (centres unmarked) [C68126, 3-(7-oxo-5H-[1,3]dioxolo[4,5-f]isoindol-6-yl)piperidine-2,6-dione] | TRUE
559 nM |  | O=C1CCC(N2Cc3cc(Nc4ncc5[nH]cnc5n4)ccc3C2=O)C(=O)N1 (centres unmarked) [C80376, 3-[1-oxo-5-(7H-purin-2-ylamino)isoindolin-2-yl]piperidine-2,6-dione] | TRUE
9.89 nM | 1780 nM | O=C1CCC(N2Cc3cc(Nc4ncc5c(n4)COC5)ccc3C2=O)C(=O)N1 (centres unmarked) [C80380, 3-[5-(5,7-dihydrofuro[3,4-d]pyrimidin-2-ylamino)-1-oxo-isoindolin-2-yl]piperidine-2,6-dione] | TRUE
152 nM |  | O=C1CCC(N2Cc3ccc(Nc4ncc5c(n4)COC5)cc3C2=O)C(=O)N1 (centres unmarked) [C80391, 3-[6-(5,7-dihydrofuro[3,4-d]pyrimidin-2-ylamino)-1-oxo-isoindolin-2-yl]piperidine-2,6-dione] | TRUE
1380 nM |  | O=C1CCC(N2Cc3ccc(NC(=O)c4cnc5nccn5c4)cc3C2=O)C(=O)N1 (centres unmarked) [C80396, N-[2-(2,6-dioxo-3-piperidyl)-3-oxo-isoindolin-5-yl]imidazo[1,2-a] pyrimidine-6-carboxamide] | TRUE
1010 nM |  | CC(Nc1ccc2c(c1)C(=O)N(C1CCC(=O)NC1=O)C2)C(=O)O (centres unmarked) [C84970, 2-[[2-(2,6-dioxo-3-piperidyl)-3-oxo-isoindolin-5-yl]amino] propanoic acid] | TRUE
4820 nM |  | O=C1CCC(N2Cc3ccccc3C2)C(=O)N1 (centres unmarked) [C87699, 3-isoindolin-2-ylpiperidine-2.6-dione] | TRUE
438 nM |  | O=C1CCC(N2C(=O)c3ccccc3C2O)C(=O)N1 (centres unmarked) [C89940, 3-(1-hydroxy-3-oxo-isoindolin-2-yl)piperidine-2,6-dione] | TRUE
< 13.7 nM | 1290 nM | CN(C)c1ccc2c(c1)CN(C1CCC(=O)NC1=O)C2=O (centres unmarked) [C98103, 3-[5-(dimethylamino)-1-oxo-isoindolin-2-yl]piperidine-2,6-dione] | TRUE
